In brackets after ≈: the same amount, converted by molar mass. Activity calls are given as the source filed them. The calls are words filed in the database; no cut-off is given here.
system: Bacillus pumilus; test: Antibacterial activity against Bacillus pumilus 11778 assessed as growth inhibition after 24 hr by agar dilution method; assay type: functional; details: Bacillus pumilus, 11778, 24 h

SMILES | MIC [mg/L]
CC1(C)S[C@@H]2[C@H](NC(=O)[C@H](N)c3ccc(O)cc3)C(=O)N2[C@H]1C(=O)O [AMOXICILLIN] | 0.5 (≈ 1.37 µM)
Cc1ccc2cccc(OCc3cc4ccccc4cc3COc3cccc4ccc(C)nc34)c2n1 | 64 (≈ 136 µM)
c1ccc2cc(COc3cccc4cccnc34)c(COc3cccc4cccnc34)cc2c1 | 256 (≈ 579 µM)

system: Klebsiella pneumoniae; test: Antibacterial activity against Klebsiella pneumoniae J/I/4 assessed as growth inhibition at MIC after 24 hr by agar dilution method; assay type: functional; details: not given

SMILES | diameter of the inhibition zone (DIZ)
CC1(C)S[C@@H]2[C@H](NC(=O)[C@H](N)c3ccc(O)cc3)C(=O)N2[C@H]1C(=O)O [AMOXICILLIN] | 8 mm
Cc1ccc2cccc(OCc3cc4ccccc4cc3COc3cccc4ccc(C)nc34)c2n1 | inactive
c1ccc2cc(COc3cccc4cccnc34)c(COc3cccc4cccnc34)cc2c1 | 6.4 mm

system: Cryptococcus neoformans; test: Antifungal activity against Cryptococcus neoformans assessed as growth inhibition at MIC after 96 hr by agar dilution method; assay type: functional; details: not given

SMILES | diameter of the inhibition zone (DIZ) [mm]
OC(Cn1cncn1)(Cn1cncn1)c1ccc(F)cc1F [FLUCONAZOLE] | 8.5

system: Candida tropicalis; test: Antifungal activity against Candida tropicalis assessed as growth inhibition at MIC after 96 hr by agar dilution method; assay type: functional; details: not given

SMILES | diameter of the inhibition zone (DIZ) [mm]
OC(Cn1cncn1)(Cn1cncn1)c1ccc(F)cc1F [FLUCONAZOLE] | 8.5

system: Candida albicans; test: Antifungal activity against Candida albicans assessed as growth inhibition at MIC after 96 hr by agar dilution method; assay type: functional; details: not given

SMILES | diameter of the inhibition zone (DIZ) [mm]
OC(Cn1cncn1)(Cn1cncn1)c1ccc(F)cc1F [FLUCONAZOLE] | 10.2

system: Candida albicans; test: Antifungal activity against Candida albicans assessed as growth inhibition after 96 hr by agar dilution method; assay type: functional; details: not given

SMILES | MIC
Cc1ccc2cccc(OCc3cc4ccccc4cc3COc3cccc4ccc(C)nc34)c2n1 | inactive
OC(Cn1cncn1)(Cn1cncn1)c1ccc(F)cc1F [FLUCONAZOLE] | 4 mg/L (≈ 13.1 µM)
c1ccc2cc(COc3cccc4cccnc34)c(COc3cccc4cccnc34)cc2c1 | inactive

system: Pseudomonas aeruginosa; test: Antibacterial activity against Pseudomonas aeruginosa 71 assessed as growth inhibition at MIC after 24 hr by agar dilution method; assay type: functional; details: not given

SMILES | diameter of the inhibition zone (DIZ)
CC1(C)S[C@@H]2[C@H](NC(=O)[C@H](N)c3ccc(O)cc3)C(=O)N2[C@H]1C(=O)O [AMOXICILLIN] | 7.5 mm
Cc1ccc2cccc(OCc3cc4ccccc4cc3COc3cccc4ccc(C)nc34)c2n1 | inactive
c1ccc2cc(COc3cccc4cccnc34)c(COc3cccc4cccnc34)cc2c1 | 8.2 mm

system: Vibrio cholerae; test: Antibacterial activity against Vibrio cholerae 759 assessed as growth inhibition at MIC after 24 hr by agar dilution method; assay type: functional; details: not given

SMILES | diameter of the inhibition zone (DIZ)
CC1(C)S[C@@H]2[C@H](NC(=O)[C@H](N)c3ccc(O)cc3)C(=O)N2[C@H]1C(=O)O [AMOXICILLIN] | 7 mm
Cc1ccc2cccc(OCc3cc4ccccc4cc3COc3cccc4ccc(C)nc34)c2n1 | inactive
c1ccc2cc(COc3cccc4cccnc34)c(COc3cccc4cccnc34)cc2c1 | 7.1 mm

system: Vibrio cholerae; test: Antibacterial activity against Vibrio cholerae 759 assessed as growth inhibition after 24 hr by agar dilution method; assay type: functional; details: Vibrio cholerae, 759, 24 h

SMILES | MIC [mg/L]
CC1(C)S[C@@H]2[C@H](NC(=O)[C@H](N)c3ccc(O)cc3)C(=O)N2[C@H]1C(=O)O [AMOXICILLIN] | 256 (≈ 701 µM)
Cc1ccc2cccc(OCc3cc4ccccc4cc3COc3cccc4ccc(C)nc34)c2n1 | > 500
c1ccc2cc(COc3cccc4cccnc34)c(COc3cccc4cccnc34)cc2c1 | > 500

system: Staphylococcus aureus; test: Antibacterial activity against Staphylococcus aureus 29737 assessed as growth inhibition at MIC after 24 hr by agar dilution method; assay type: functional; details: not given

SMILES | diameter of the inhibition zone (DIZ) [mm]
CC1(C)S[C@@H]2[C@H](NC(=O)[C@H](N)c3ccc(O)cc3)C(=O)N2[C@H]1C(=O)O [AMOXICILLIN] | 10.5
Cc1ccc2cccc(OCc3cc4ccccc4cc3COc3cccc4ccc(C)nc34)c2n1 | 6.1
c1ccc2cc(COc3cccc4cccnc34)c(COc3cccc4cccnc34)cc2c1 | 6

system: Escherichia coli; test: Antibacterial activity against Escherichia coli 319 assessed as growth inhibition after 24 hr by agar dilution method; assay type: functional; details: Escherichia coli, 319, 24 h

SMILES | MIC [mg/L]
CC1(C)S[C@@H]2[C@H](NC(=O)[C@H](N)c3ccc(O)cc3)C(=O)N2[C@H]1C(=O)O [AMOXICILLIN] | 4 (≈ 10.9 µM)
Cc1ccc2cccc(OCc3cc4ccccc4cc3COc3cccc4ccc(C)nc34)c2n1 | > 500
c1ccc2cc(COc3cccc4cccnc34)c(COc3cccc4cccnc34)cc2c1 | 32 (≈ 72.3 µM)

system: Bacillus pumilus; test: Antibacterial activity against Bacillus pumilus 11778 assessed as growth inhibition at MIC after 24 hr by agar dilution method; assay type: functional; details: not given

SMILES | diameter of the inhibition zone (DIZ) [mm]
CC1(C)S[C@@H]2[C@H](NC(=O)[C@H](N)c3ccc(O)cc3)C(=O)N2[C@H]1C(=O)O [AMOXICILLIN] | 10
Cc1ccc2cccc(OCc3cc4ccccc4cc3COc3cccc4ccc(C)nc34)c2n1 | 6
c1ccc2cc(COc3cccc4cccnc34)c(COc3cccc4cccnc34)cc2c1 | 9

system: Candida tropicalis; test: Antifungal activity against Candida tropicalis assessed as growth inhibition after 96 hr by agar dilution method; assay type: functional; details: not given

SMILES | MIC
Cc1ccc2cccc(OCc3cc4ccccc4cc3COc3cccc4ccc(C)nc34)c2n1 | inactive
OC(Cn1cncn1)(Cn1cncn1)c1ccc(F)cc1F [FLUCONAZOLE] | 8 mg/L (≈ 26.1 µM)
c1ccc2cc(COc3cccc4cccnc34)c(COc3cccc4cccnc34)cc2c1 | inactive

system: Micrococcus luteus; test: Antibacterial activity against Micrococcus luteus ATCC 9341 assessed as growth inhibition at MIC after 24 hr by agar dilution method; assay type: functional; details: not given

SMILES | diameter of the inhibition zone (DIZ)
CC1(C)S[C@@H]2[C@H](NC(=O)[C@H](N)c3ccc(O)cc3)C(=O)N2[C@H]1C(=O)O [AMOXICILLIN] | 11 mm
Cc1ccc2cccc(OCc3cc4ccccc4cc3COc3cccc4ccc(C)nc34)c2n1 | inactive
c1ccc2cc(COc3cccc4cccnc34)c(COc3cccc4cccnc34)cc2c1 | 6 mm

system: Escherichia coli; test: Antibacterial activity against Escherichia coli 319 assessed as growth inhibition at MIC after 24 hr by agar dilution method; assay type: functional; details: not given

SMILES | diameter of the inhibition zone (DIZ) [mm]
CC1(C)S[C@@H]2[C@H](NC(=O)[C@H](N)c3ccc(O)cc3)C(=O)N2[C@H]1C(=O)O [AMOXICILLIN] | 8
Cc1ccc2cccc(OCc3cc4ccccc4cc3COc3cccc4ccc(C)nc34)c2n1 | 7
c1ccc2cc(COc3cccc4cccnc34)c(COc3cccc4cccnc34)cc2c1 | 9.7

system: Shigella dysenteriae; test: Antibacterial activity against Shigella dysenteriae 15 assessed as growth inhibition at MIC after 24 hr by agar dilution method; assay type: functional; details: not given

SMILES | diameter of the inhibition zone (DIZ) [mm]
CC1(C)S[C@@H]2[C@H](NC(=O)[C@H](N)c3ccc(O)cc3)C(=O)N2[C@H]1C(=O)O [AMOXICILLIN] | 9.5
Cc1ccc2cccc(OCc3cc4ccccc4cc3COc3cccc4ccc(C)nc34)c2n1 | 8
c1ccc2cc(COc3cccc4cccnc34)c(COc3cccc4cccnc34)cc2c1 | 6

system: Cryptococcus neoformans; test: Antifungal activity against Cryptococcus neoformans assessed as growth inhibition after 96 hr by agar dilution method; assay type: functional; details: not given

SMILES | MIC
Cc1ccc2cccc(OCc3cc4ccccc4cc3COc3cccc4ccc(C)nc34)c2n1 | inactive
OC(Cn1cncn1)(Cn1cncn1)c1ccc(F)cc1F [FLUCONAZOLE] | 8 mg/L (≈ 26.1 µM)
c1ccc2cc(COc3cccc4cccnc34)c(COc3cccc4cccnc34)cc2c1 | inactive

system: Pseudomonas aeruginosa; test: Antibacterial activity against Pseudomonas aeruginosa 71 assessed as growth inhibition after 24 hr by agar dilution method; assay type: functional; details: Pseudomonas aeruginosa, 71, 24 h

SMILES | MIC [mg/L]
CC1(C)S[C@@H]2[C@H](NC(=O)[C@H](N)c3ccc(O)cc3)C(=O)N2[C@H]1C(=O)O [AMOXICILLIN] | 256 (≈ 701 µM)
Cc1ccc2cccc(OCc3cc4ccccc4cc3COc3cccc4ccc(C)nc34)c2n1 | > 500
c1ccc2cc(COc3cccc4cccnc34)c(COc3cccc4cccnc34)cc2c1 | > 500

system: Klebsiella pneumoniae; test: Antibacterial activity against Klebsiella pneumoniae J/I/4 assessed as growth inhibition after 24 hr by agar dilution method; assay type: functional; details: J/I/4, 24 h

SMILES | MIC [mg/L]
CC1(C)S[C@@H]2[C@H](NC(=O)[C@H](N)c3ccc(O)cc3)C(=O)N2[C@H]1C(=O)O [AMOXICILLIN] | 256 (≈ 701 µM)
Cc1ccc2cccc(OCc3cc4ccccc4cc3COc3cccc4ccc(C)nc34)c2n1 | > 1000
c1ccc2cc(COc3cccc4cccnc34)c(COc3cccc4cccnc34)cc2c1 | > 500

system: Aspergillus niger; test: Antifungal activity against Aspergillus niger assessed as growth inhibition after 96 hr by agar dilution method; assay type: functional; details: not given

SMILES | MIC
Cc1ccc2cccc(OCc3cc4ccccc4cc3COc3cccc4ccc(C)nc34)c2n1 | inactive
OC(Cn1cncn1)(Cn1cncn1)c1ccc(F)cc1F [FLUCONAZOLE] | 10 mg/L (≈ 32.7 µM)
c1ccc2cc(COc3cccc4cccnc34)c(COc3cccc4cccnc34)cc2c1 | inactive

system: Shigella dysenteriae; test: Antibacterial activity against Shigella dysenteriae 15 assessed as growth inhibition after 24 hr by agar dilution method; assay type: functional; details: Shigella dysenteriae, 15, 24 h

SMILES | MIC [mg/L]
CC1(C)S[C@@H]2[C@H](NC(=O)[C@H](N)c3ccc(O)cc3)C(=O)N2[C@H]1C(=O)O [AMOXICILLIN] | 100 (≈ 274 µM)
Cc1ccc2cccc(OCc3cc4ccccc4cc3COc3cccc4ccc(C)nc34)c2n1 | > 500
c1ccc2cc(COc3cccc4cccnc34)c(COc3cccc4cccnc34)cc2c1 | > 500

system: Aspergillus niger; test: Antifungal activity against Aspergillus niger assessed as growth inhibition at MIC after 96 hr by agar dilution method; assay type: functional; details: not given

SMILES | diameter of the inhibition zone (DIZ) [mm]
OC(Cn1cncn1)(Cn1cncn1)c1ccc(F)cc1F [FLUCONAZOLE] | 8.6

system: Staphylococcus aureus; test: Antibacterial activity against Staphylococcus aureus 29737 assessed as growth inhibition after 24 hr by agar dilution method; assay type: functional; details: Staphylococcus aureus, 29737, 24 h

SMILES | MIC [mg/L]
CC1(C)S[C@@H]2[C@H](NC(=O)[C@H](N)c3ccc(O)cc3)C(=O)N2[C@H]1C(=O)O [AMOXICILLIN] | 0.5 (≈ 1.37 µM)
Cc1ccc2cccc(OCc3cc4ccccc4cc3COc3cccc4ccc(C)nc34)c2n1 | > 500
c1ccc2cc(COc3cccc4cccnc34)c(COc3cccc4cccnc34)cc2c1 | > 500

system: Micrococcus luteus; test: Antibacterial activity against Micrococcus luteus ATCC 9341 assessed as growth inhibition after 24 hr by agar dilution method; assay type: functional; details: ATCC 9341, 24 h

SMILES | MIC [mg/L]
CC1(C)S[C@@H]2[C@H](NC(=O)[C@H](N)c3ccc(O)cc3)C(=O)N2[C@H]1C(=O)O [AMOXICILLIN] | 1 (≈ 2.74 µM)
Cc1ccc2cccc(OCc3cc4ccccc4cc3COc3cccc4ccc(C)nc34)c2n1 | > 1000
c1ccc2cc(COc3cccc4cccnc34)c(COc3cccc4cccnc34)cc2c1 | > 500

From ChEMBL document CHEMBL3046627, “Synthesis and in vitro study of antibacterial, antifungal activities of some novel bisquinolines” (2013)
